Laboratory results as given in PMC10862732 (bioRxiv, 2024).

Test system: T7 LysY/Iq E. coli
Type: cell-based
Settings: 0 – 0.5 mM IPTG, 37 °C, 12 hours, OD600

Substance: RRIRFRPPYL•••G••PRFPPPFPIPRIPRIP [Tur1a]
- Host growth upon induction of AMP expression with IPTG (self-depletion): dramatically slowed growth
